Laboratory results: the OPERA property sets (Mansouri et al. 2018)

Details: for log10 BCF / log10 biotransformation half-life (days): fish

Compound | boiling point [°C] | melting point [°C] | further results
FC1(F)C(Cl)=C(Cl)C(F)(F)C1(F)F | 90.7 | -106 | –
O=c1cc(O)cc[nH]1 | – | 278 | –
CCCCc1ccc(C(=O)O)cc1 | – | 106 | –
CN1C(=O)CC[C@H]1c1cccnc1 | – | 41 | –
CCC(C(=O)NC(N)=O)c1ccccc1 (stereo not given) | – | 162 | –
Cc1ccc(OP(=O)(Oc2ccc(C)c(C)c2)Oc2ccc(C)c(C)c2)cc1C | – | 72 | –
CCCOC(=O)Cn1cc(I)c(=O)c(I)c1 | – | 186 | –
C[C@@]12CCC[C@H]1[C@@H]1CC[C@H]3CCCC[C@]3(C)[C@H]1CC2 | – | 64.6 | –
CC#CC(=O)O | 203 | 78 | –
COc1ccc([N+](=O)[O-])cc1N | – | 118 | –
CC(C)(OCc1ccc(-c2ccc(Cl)cc2)cc1)C(=O)O | – | 154 | –
CC(C)(C)CC(C)(C)c1ccc(OCCOCC[N+](C)(C)Cc2ccccc2)cc1 | – | – | ready biodegradability: not readily biodegradable
ClCc1ccc2c(c1)OCO2 | – | 20.5 | –
CCOC(=O)C(C)(C)C | 118 | -89.5 | log10 vapour pressure (mmHg): 1.25
BrC(Br)(Br)Br | 190 | 90.1 | log10 vapour pressure (mmHg): -0.569
Cc1ccc(P(c2ccc(C)cc2)c2ccc(C)cc2)cc1 | – | 149 | –
CC1(C)OC(c2ccco2)CN1C(=O)C(Cl)Cl (stereo not given) | – | 97 | log10 vapour pressure (mmHg): -7.31
C=C(C)C1CC=C(C)C(=O)C1 (stereo not given) | 230 | – | –
C=CCc1cc(Cl)ccc1O | – | 48 | –
Cc1cc(Cl)cc(Cl)c1Cl | 230 | 45.5 | –
Oc1ccc(O)c(Cl)c1 | 263 | 108 | –
CCCCCCCCCCCCNC(=O)C[N+](C)(C)Cc1ccccc1.[Cl-] | – | 148 | –
Cc1ccc(C(=O)NN)cc1 | – | 117 | –
Nc1ccc(Nc2ccc([N+](=O)[O-])cc2[N+](=O)[O-])cc1 | – | 188 | log10 vapour pressure (mmHg): -10.2
CC1(C)[C@H](C=C(Cl)Cl)[C@H]1C(=O)OCc1cccc(Oc2ccccc2)c1 | – | – | ready biodegradability: not readily biodegradable
CN(C)CCCN1c2ccccc2CCc2ccc(Cl)cc21 | – | 190 | –

Compound | boiling point [°C] | melting point [°C] | further results
ON=C1CCCCC1=NO | – | 192 | –
CC=Cc1ccc(O)c(OC)c1 | 266 | 11.8 | log10 vapour pressure (mmHg): -1.92
O=[N+]([O-])c1cc(F)ccc1F | 206 | -11.7 | –
CCCCCCCCCCCCCOC(=O)c1ccccc1C(=O)OCCCCCCCCCCCCC | – | – | ready biodegradability: not readily biodegradable
Brc1cccc2ccccc12 | 281 | -1.8 | log10 vapour pressure (mmHg): -2.01
CCOP(=O)(OCC)Oc1ccc([N+](=O)[O-])cc1 | – | 300 | log10 vapour pressure (mmHg): -5.96
C=CCF | -3 | – | –
CCCCCC[Si](O)(CCCCCC)CCCCCC | – | – | log10 BCF: 2.7; log10 biotransformation half-life (days): 0.04
O=C(O)CCc1ccco1 | 229 | 58 | –
Cc1ccc(N)c(Cl)c1 | 220 | 7 | –
CNC(=C[N+](=O)[O-])NCCSCc1ccc(CN(C)C)o1 | – | 69.5 | –
Cc1c(N)cc([N+](=O)[O-])cc1C(N)=O | – | 199 | –
CC(C)=CCCl | 109 | – | –
CC(=O)OCC(=O)[C@@]1(O)CC[C@H]2[C@@H]3CCC4=CC(=O)CC[C@]4(C)[C@H]3C(=O)C[C@@]21C | – | 222 | –
N#Cc1c[nH]c2ccccc12 | – | 180 | –
CC[N+]1(C)CCCC(OC(=O)C(O)(c2ccccc2)c2ccccc2)C1.[Br-] (stereo not given) | – | 180 | –
CCCC(C)CCN (stereo not given) | 149 | – | –
COC(=O)CC[N+](=O)[O-] | – | – | ready biodegradability: readily biodegradable
CCOC(F)(F)C(F)F | 57.5 | – | log10 vapour pressure (mmHg): 2.34
Cc1ccc(C=O)o1 | 187 | – | –
O=C(O)CCC(=O)Nc1ccccc1 | – | 148 | –
OC1CC=CCC1 (stereo not given) | 164 | – | –
Clc1cc(Cl)cc(-c2ccccc2)c1 | – | – | log10 BCF: 3.77; log10 biotransformation half-life (days): 1.11
CCC(C)C(CC)C(C)C (stereo not given) | 162 | – | –
CC(=O)N(C)C(C)=O | 195 | -25 | –
CC(C)(C)c1ccc(O)c(C(C)(C)C)c1 | 264 | 56.5 | log10 vapour pressure (mmHg): -2.32; ready biodegradability: not readily biodegradable; log10 BCF: 2.4; log10 biotransformation half-life (days): -0.37

Compound | boiling point [°C] | melting point [°C] | further results
CCNc1nc(O)nc(NCC)n1 | – | – | ready biodegradability: not readily biodegradable
O=C(c1ccccc1)c1cccc(Br)c1 | – | 81 | –
Cc1ccc(Nc2ccc(C)cc2)cc1 | 330 | 79.8 | –
O=C1CN=C(c2ccccc2)c2cc(Cl)ccc2N1CC(F)(F)F | – | 165 | –
O=C1c2ccccc2C(=O)c2c1ccc(O)c2O | 430 | 290 | log10 vapour pressure (mmHg): -9.06
Clc1ccc2c(Cl)cccc2c1Cl | – | – | log10 Koa: 7.5
O=CN(c1ccccc1)c1ccccc1 | 338 | 73.5 | –
Cc1ccc(Br)cc1Br | – | -9.7 | –
OCCOc1ccccc1 | 245 | 14 | log10 vapour pressure (mmHg): -2.15
CCP(CC)CC | 129 | -88 | –
Cc1cc(C)c(N)c(Cl)c1 | – | – | ready biodegradability: not readily biodegradable
CCCCCCCCCCCCOc1ccc(C(=O)O)cc1 | – | 95 | –
CCCC(CCC)CCC | 158 | – | –
Cc1ccc2cc3c(ccc4ccccc43)c3c2c1CC3 | – | 180 | log10 Koc (L/kg): 6.1; log10 vapour pressure (mmHg): -7.37; ready biodegradability: not readily biodegradable
Nc1cc(Cl)cc(Cl)c1 | 261 | 52 | log10 Koc (L/kg): 2.49; ready biodegradability: not readily biodegradable
CCC/C=C/CCC | 126 | -104 | log10 vapour pressure (mmHg): 1.25
c1cc2c(c(NC3=NCCN3)c1)CCCC2 | – | 142 | –
COc1cc(Cl)c(Cl)c(Cl)c1Cl | – | 84 | log10 BCF: 3.67
CC1(C)[C@H](C(=O)O[C@H](C#N)c2cccc(Oc3ccccc3)c2)[C@@H]1C=C(Br)Br | – | 100 | log10 vapour pressure (mmHg): -7.82; log10 BCF: 2.51; log10 biotransformation half-life (days): 0.51
CCCCN(CCO)CCO | 275 | – | –
O=S(O)c1ccc(Cl)cc1 | – | 99 | –
C1CCCOCC1 | 119 | – | –
CCCOC(=O)C(=O)OCCC | 211 | -44.3 | –
CC[C@]1(O)C[C@H]2C[N@](CCc3c([nH]c4ccccc34)[C@@](C(=O)OC)(c3cc4c(cc3OC)N(C)[C@H]3[C@@](O)(C(N)=O)[C@H](O)[C@]5(CC)C=CCN6CC[C@]43[C@@H]65)C2)C1 | – | 231 | –
ICCCCI | – | 5.8 | –
CC(C)CN(CCO)CC(C)C | 214 | – | –

Compound | boiling point [°C] | melting point [°C] | further results
CCCCCCC(=O)OCC | 187 | -66.1 | log10 Henry constant (atm·m³/mol): -3.3; log10 Koc (L/kg): 2.61; log10 vapour pressure (mmHg): -0.168
CCCCCCCCCCCCCCCC(CCCC)c1ccccc1 (stereo not given) | – | 30.2 | –
Cc1cc(Cl)c2ccccc2n1 | 270 | 42.5 | –
C=CC(=O)OC | 80.2 | -76.5 | log10 vapour pressure (mmHg): 1.94; ready biodegradability: readily biodegradable
CCOC(=O)CCCCl | 184 | – | –
c1cnc2[nH]ccc2c1 | – | 106 | –
Cc1cc(=O)n(-c2ccccc2)n1C | 319 | 114 | –
C1COCCO1 | 102 | 11.8 | log10 Henry constant (atm·m³/mol): -5.32; log10 Koa: 3.18; log10 Koc (L/kg): 1.23; log10 vapour pressure (mmHg): 1.58; ready biodegradability: not readily biodegradable; log10 BCF: -0.3
CCOC(=O)C(O)c1ccccc1 (stereo not given) | – | 35 | –
Nc1c(Cl)c(Cl)nc(C(=O)O)c1Cl | – | 218 | log10 Koc (L/kg): 1.3; log10 vapour pressure (mmHg): -10.1; ready biodegradability: not readily biodegradable
N#CN | – | 44 | log10 vapour pressure (mmHg): -2.43
CCC(C)C1CCCCC1 (stereo not given) | 179 | – | log10 vapour pressure (mmHg): 0.37
C#CCN1CC(=O)N(COC(=O)[C@@H]2[C@@H](C=C(C)C)C2(C)C)C1=O | – | – | log10 vapour pressure (mmHg): -7.87
Fc1c(F)c(F)c(F)c(F)c1F | 80.2 | – | log10 vapour pressure (mmHg): 1.93
BrC1CCCCC1 | 166 | -56.5 | –
CCCCCCCCCCCCCCCCN | 322 | 46.8 | log10 vapour pressure (mmHg): -3.88
OCC(O)CN1CCN(c2ccccc2)CC1 (stereo not given) | – | 105 | –
O=C(O)/C=C/c1ccccc1 | 300 | 133 | log10 vapour pressure (mmHg): -4.49
O=C(O)COc1c(Cl)ccc(Cl)c1Cl | – | 148 | –
C[C@H](O)[C@H](O)[C@@H](O)[C@@H](O)C=O | – | 135 | –
FC(F)(F)C(F)(F)Br | -21 | – | –
O=C(O)c1ccc(C(=O)O)c2c(C(=O)O)ccc(C(=O)O)c12 | – | 320 | –
FC(Cl)Br (stereo not given) | 36 | -115 | –
O=C(Nc1ccc(Br)cc1)c1cc(Br)cc(Br)c1O | – | 227 | –
COc1ccc(C=CC(=O)c2ccc(OC)cc2OC)cc1 | – | 97 | –
CCC(C)(CO)CO | 226 | 40.3 | –

Compound | boiling point [°C] | melting point [°C] | further results
Clc1nnc(Cl)c2ccccc12 | – | – | ready biodegradability: not readily biodegradable
NNC(=O)c1cccc(Br)c1 | – | 158 | –
CCCCNc1ccccc1 | 244 | -14.4 | –
CCC(CC)C(C)C(C)C (stereo not given) | 162 | – | –
CCCCCCCCCCCCCCCCCCNC | – | 44 | –
O=[N+]([O-])CCc1ccccc1 | 250 | -23 | –
Clc1ccc2cc[nH]c2c1 | – | 90 | –
Fc1ccc(Br)cc1 | 152 | -17.4 | –
CC(O)(CCl)CCl | 174 | – | –
COC(=O)Nc1nc2cc(C(=O)c3ccccc3)ccc2[nH]1 | – | 288 | –
CC(C)OP(=O)(OC(C)C)SCc1ccccc1 | – | – | log10 Koc (L/kg): 2.26; log10 vapour pressure (mmHg): -4.39; log10 BCF: 0.94; log10 biotransformation half-life (days): -1.2
CC1=C(O)C(=O)[C@@H]2O[C@@H]2C1=O | – | 127 | –
CCOC(=O)OCC | 126 | -43 | log10 vapour pressure (mmHg): 1.03
CCNC1CCCCC1 | 164 | – | –
O=C(C(Cl)Cl)C(Cl)Cl | 183 | – | –
c1ccc2c(c1)ccc1c3ccccc3ccc21 | 448 | 258 | log10 Henry constant (atm·m³/mol): -5.28; log10 biodegradation half-life (days): 2.58; log10 vapour pressure (mmHg): -8.21; log10 biotransformation half-life (days): 0.59
O=C(O)c1ccc(Br)cc1 | – | 254 | log10 vapour pressure (mmHg): -5
CC(C)(C)[C@H](O)/C(=C\c1ccc(Cl)cc1)n1cncn1 | – | 153 | –
CCCc1ssc(=S)c1C | – | 49 | –
FC(F)(F)c1ccc(Cl)c(Cl)c1 | 174 | -12.5 | log10 vapour pressure (mmHg): 0.372; log10 BCF: 3.18; log10 biotransformation half-life (days): 1.52
CC(C)COc1ccccc1 | 198 | – | –
CC(C)CCCC(C)CCO (stereo not given) | 212 | – | –
